Measured values as given in PMC9739180, “Discovery of a Flavonoid FM04 as a Potent Inhibitor to Reverse P-Glycoprotein-Mediated Drug Resistance in Xenografts and Improve Oral Bioavailability of Paclitaxel” (International Journal of Molecular Sciences, 2022).
Read-outs that look alike come from different tables or passages of the source. One block for each compound: values may come before it.

Assays:
LCC6 cells = test: IC50 of anticancer drugs in wild-type LCC6 with or without FM04; assay type: cell-based, human
Description: Table S1. IC50 of anticancer drugs in LCC6 and LCC6MDR and P-gp modulating activity of FM04.
fold): IC50 of an anticancer drug of LCC6MDR without FM04/IC50 of an anticancer of LCC6 with or without
FM04 or LCC6MDR with FM04. N = 2 - 8 independent experiment. The IC50 values were presented as mean ±
standard error mean. /: not determined.

[1] = Pharmacokinetics of PTX and FM04 after oral co-administration; assay type: in vivo, Balb/c mice; details: mice
Experimental: Pharmacokinetics (PK) study of PTX or FM04 after their oral co-administration. […] PTX (20 or 70 mg/kg) was orally co-administered with FM04 (0, 22 or 45 mg/kg) to mice, plasma was collected at 30, 60, 120, 240 and 420 min, respectively. […] FM04 (45 or 100 mg/kg) was orally co-administered with PTX (0, 50 or 70 mg/kg) to mice, plasma was collected at 30, 60, 120, 240 and 420 min, respectively. The concentration FM04 at each time point was determined by UPLC-MS/MS Pharmacokinetic parameter AUC was calculated by the pharmacokinetic software-Summit® PK solutions 2.0 (Summit Research Service, Ashland, Wilmington, DE, USA).
PTX drug solution was prepared in 5% Cremophor EL, 5% ethanol and 90% saline on the day of the experiment. PTX + FM04 drug solution was prepared in 7% Cremophor EL, 8% ethanol and 85% saline on the day of the experiment. PTX drug solution or PTX + FM04 mixture drug solution was administered to the Balb/c mice (female, 4–6 week-old) via oral gavage. Blood was collected via cardiac puncture at scheduled time points (10, 30, 60, 120, 240 and 420 min) under deep anesthesia. All animals were terminated at the end of the experiment. Plasma concentrations of FM04 and PTX were detected using UPLC-MS/MS. Plasma concentration–time profiles were analyzed by non-compartmental analysis (NCA). The area under the plasma concentration–time curve by trapezoid rules (AUC) (from 0 to infinity), the terminal half-life (t1/2β), initial half-life (t1/2α), mean residence time (MRT), maximum observed concentration (Cmax) and time to maximum concentration (Tmax) were calculated by PK Solutions 2.0 (Summit Research Service, Ashland, Wilmington, DE, USA).
PTX and its internal standard (IS) separation were performed on Agilent 1290 series UPLC coupled with Agilent 6460 Triple quadrupole. The calibration curve of PTX was constructed by quantifying the known amount of PTX that spiked to blank mice plasma following identical sample preparation. The mass spectrometer was configured in ESI + ionization mode monitoring MRM ion transition of m/z 854 > 286 (PTX) and m/z 882 > 314 (IS). Source parameters were as follows, gas temp (350 °C), gas flow (8 L/min), nebulizer (35 psi) and capillary (4000 V). UPLC chromatographic separation was performed on Waters Acquity UPLC BEH C18 (1.7 µM, 2.1 × 50 mm) with a 5 min gradient elution of 30% acetonitrile with 0.1% formic acid to 76% ACN with 0.1% formic acid. Milli-Q with 0.1% formic acid was used as the aqueous phase. Each separation and re-equilibration were completed in 9 min.
Detection and quantification of FM04 and its internal standard were done by using the UPLC-MS/MS system consist of an Acquity Waters UPLC interfaced with a triple quadrupole mass spectrometer (Micromass model Quattro Ultima) equipped with an electrospray ionization source in positive mode. The desolvation temperature, capillary voltage, cone gas and desolvation gas were 350 °C, 3 Kv, 150 L/h and 600 L/h, respectively. Multiple reaction monitoring (MRM) was set to monitor the transitions from 416 > 239 (FM04) and 423 > 239 (IS). Chromatography separation was done with an Acquity UPLC BEH C8 column (2.1 × 50 mm, 1.7 µM). The mobile phase consisted of methanol + 0.1% formic acid (solvent B) and Milli-Q water + 0.1% formic acid (solvent A). The flow rate was 0.4 mL/min. The initial condition was 90% solvent A and 10% solvent B. After 1 min elution by the initial condition, a linear gradient was performed with solvent B increasing from 10% to 100% for 10 min. Afterwards, the mobile phase was restored to the initial condition for re-equilibration. The total analysis time was 20 min per injection.

P-gp = P-gp (Homo sapiens, UniProt P08183); test: Reversal of P-gp-mediated MDR in LCC6MDR cells (MTS cell viability, 5 days)
Sequence of P-gp (P08183 whole entry): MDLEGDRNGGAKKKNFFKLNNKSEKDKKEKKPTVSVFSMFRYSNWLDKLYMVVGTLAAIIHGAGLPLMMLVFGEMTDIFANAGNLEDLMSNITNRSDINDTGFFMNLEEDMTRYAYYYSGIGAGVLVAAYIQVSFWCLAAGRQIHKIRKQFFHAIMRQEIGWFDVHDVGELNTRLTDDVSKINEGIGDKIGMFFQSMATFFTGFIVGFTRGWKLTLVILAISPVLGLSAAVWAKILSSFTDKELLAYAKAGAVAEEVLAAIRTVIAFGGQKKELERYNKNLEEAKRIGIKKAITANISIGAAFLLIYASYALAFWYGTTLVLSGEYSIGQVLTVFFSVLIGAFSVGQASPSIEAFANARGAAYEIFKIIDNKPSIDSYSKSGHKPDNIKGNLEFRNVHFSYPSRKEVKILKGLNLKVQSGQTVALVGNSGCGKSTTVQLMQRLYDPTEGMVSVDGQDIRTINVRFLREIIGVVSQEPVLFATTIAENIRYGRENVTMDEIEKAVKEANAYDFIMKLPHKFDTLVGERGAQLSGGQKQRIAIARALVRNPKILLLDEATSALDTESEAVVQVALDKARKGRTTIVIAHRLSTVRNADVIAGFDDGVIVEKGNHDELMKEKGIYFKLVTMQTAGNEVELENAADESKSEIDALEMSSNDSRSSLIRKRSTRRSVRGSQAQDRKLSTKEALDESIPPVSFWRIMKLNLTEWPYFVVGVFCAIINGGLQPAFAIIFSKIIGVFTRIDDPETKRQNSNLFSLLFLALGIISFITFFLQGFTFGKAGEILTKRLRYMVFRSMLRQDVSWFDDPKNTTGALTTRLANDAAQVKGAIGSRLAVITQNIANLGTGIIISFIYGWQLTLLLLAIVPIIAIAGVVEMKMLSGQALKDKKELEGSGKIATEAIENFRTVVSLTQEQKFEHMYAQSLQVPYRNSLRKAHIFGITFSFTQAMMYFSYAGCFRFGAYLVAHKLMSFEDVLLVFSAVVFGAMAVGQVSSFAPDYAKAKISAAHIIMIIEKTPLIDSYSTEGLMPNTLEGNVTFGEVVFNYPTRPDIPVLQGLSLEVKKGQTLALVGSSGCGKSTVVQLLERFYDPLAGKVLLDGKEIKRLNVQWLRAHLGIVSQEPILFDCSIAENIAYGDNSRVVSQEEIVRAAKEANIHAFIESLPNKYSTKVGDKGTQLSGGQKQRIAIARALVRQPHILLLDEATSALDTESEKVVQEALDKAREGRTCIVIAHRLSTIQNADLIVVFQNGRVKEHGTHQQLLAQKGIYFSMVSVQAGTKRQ
Experimental: To each well of a 96-well plate, 6500 cells of LCC6MDR were seeded in 180 μL supplemented medium. A 10 µL compound (FD18, 14a, FM04 or FM327) at different concentrations (0, 62.5, 125, 250, 500 and 1000 nM) was added to the well. […] The final volume in each well was 200 µL and the 96-well plate was incubated at 37 °C for 5 days. The cell viability was determined using the MTS assay as reported previously. The % of cell survival, IC50 of anticancer drugs towards the LCC6MDR and the EC50 of modulators were analyzed using nonlinear regression in Prism 5.0 (Prism version 5.0, GraphPad software, San Diego, CA, USA).

[2] = oral, PTX 20 mg/kg + FM04 45 mg/kg, relative to 20 mg/kg PTX alone
[3] = oral, PTX 70 mg/kg + FM04 22 mg/kg, relative to 70 mg/kg PTX alone
[4] = oral, PTX 70 mg/kg + FM04 45 mg/kg, relative to 70 mg/kg PTX alone

AUC(0-t) ([1]; female, Balb/c, mouse, plasma, po, 100 mg/kg, oral, FM04 100 mg/kg, PTX 0 mg/kg, read-out: FM04 AUC(0-t) (converted)): 1820 ng·h/mL
Cmax ([1]; female, Balb/c, mouse, plasma, po, 100 mg/kg, oral, FM04 100 mg/kg, PTX 0 mg/kg, read-out: FM04 Cmax): 1020 ng/mL
Tmax ([1]; female, Balb/c, mouse, plasma, po, 100 mg/kg, oral, FM04 100 mg/kg, PTX 0 mg/kg, read-out: FM04 Tmax (converted)): 30 min
AUC(0-t) ([1]; female, Balb/c, mouse, plasma, po, oral, FM04 45 mg/kg + PTX 50 mg/kg, read-out: FM04 AUC(0-t) (converted)): 645 ng·h/mL
Cmax ([1]; female, Balb/c, mouse, plasma, po, oral, FM04 45 mg/kg + PTX 50 mg/kg, read-out: FM04 Cmax): 754 ng/mL
Tmax ([1]; female, Balb/c, mouse, plasma, po, oral, FM04 45 mg/kg + PTX 50 mg/kg, read-out: FM04 Tmax (converted)): 30 min
AUC(0-t) ([1]; female, Balb/c, mouse, plasma, po, oral, FM04 45 mg/kg + PTX 70 mg/kg, read-out: FM04 AUC(0-t) (converted)): 740 ng·h/mL
Cmax ([1]; female, Balb/c, mouse, plasma, po, oral, FM04 45 mg/kg + PTX 70 mg/kg, read-out: FM04 Cmax): 481 ng/mL
Tmax ([1]; female, Balb/c, mouse, plasma, po, oral, FM04 45 mg/kg + PTX 70 mg/kg, read-out: FM04 Tmax (converted)): 60 min
concentration at 720 min ([1]; female, Balb/c, mouse, plasma, FM04 100 mg/kg oral alone, at 720 min, read-out: minimum plasma concentration of FM04): 43 ng/mL
oral absorption of FM04 ([1]; FM04 100 mg/kg oral alone): < 0.005%
Structure (SMILES): O=c1cc(-c2ccc(OCCOCCNCc3ccccc3)cc2)oc2ccccc12 [FM04, 2-(4-(2-(2-(benzylamino)ethoxy)ethoxy)phenyl)-4H-chromen-4-one]
chemosensitization of wild-type LCC6 towards PTX, vinblastine and vincristine (LCC6 cells; FM04 1 μM): did not chemosensitize the wild-type LCC6 cells
EC50 (P-gp): 83 ± 7 nM
EC50 needed for reversing MDR in LCC6MDR cells: PTX (P-gp): 83 nM
fold higher potency than FD18 in reversing PTX resistance (P-gp): 1.8 fold
EC50 (P-gp; EC50 for P-gp modulation, range over PTX reversal and DOX accumulation in LCC6MDR): 64 to 83 nM
EC50 (P-gp; EC50 for chemosensitizing LCC6MDR towards vinblastine, vincristine, DOX, daunorubicin and mitoxantrone, range over the five drugs): 61 to 153 nM
EC50 (P-gp; EC50 needed for reversing MDR in LCC6MDR cells: DOX, LCC6MDR): 153 ± 39 nM
EC50 (P-gp; EC50 needed for reversing MDR in LCC6MDR cells: Daunorubicin, LCC6MDR): 88 ± 52 nM
EC50 (P-gp; EC50 needed for reversing MDR in LCC6MDR cells: Mitoxantrone, LCC6MDR): 64 ± 27 nM
EC50 (P-gp; EC50 needed for reversing MDR in LCC6MDR cells: PTX, LCC6MDR, PTX resistance): 83 nM
EC50 (P-gp; EC50 needed for reversing MDR in LCC6MDR cells: Vinblastine, LCC6MDR): 61 ± 13 nM
EC50 (P-gp; EC50 needed for reversing MDR in LCC6MDR cells: Vincristine, LCC6MDR): 83 ± 11 nM

Structure (SMILES): CC(=O)O[C@H]1C(=O)[C@@]2(C)[C@H]([C@H](OC(=O)c3ccccc3)[C@]3(O)C[C@H](OC(=O)[C@H](O)[C@@H](NC(=O)c4ccccc4)c4ccccc4)C(C)=C1C3(C)C)[C@]1(OC(C)=O)CO[C@@H]1C[C@@H]2O [PTX, paclitaxel]
IC50 (LCC6 cells; Homo sapiens, LCC-6, wild-type LCC6, no modulator, read-out: IC50 of anticancer drug, LCC6 + DMSO): 2.1 ± 0.5 nM
RF, LCC6 + DMSO (LCC6 cells; IC50 in LCC6MDR without FM04 / IC50 in LCC6): 61.7
RF, LCC6 + 1 μM FM04 (LCC6 cells; IC50 in LCC6MDR without FM04 / IC50 in LCC6 with FM04): 43.2
AUC ([1]; female, Balb/c, mouse, plasma, po, 20 mg/kg, oral, PTX 20 mg/kg + FM04 45 mg/kg): 9400 ng·h/mL
Cmax ([1]; female, Balb/c, mouse, plasma, po, 20 mg/kg, oral, PTX 20 mg/kg, FM04 0 mg/kg, read-out: PTX Cmax): 134 ng/mL
AUC ([1]; female, Balb/c, mouse, plasma, po, 20 mg/kg, PTX 20 mg/kg alone): 143 ng·h/mL
AUC ([1]; female, Balb/c, mouse, plasma, po, 70 mg/kg, oral, PTX 70 mg/kg + FM04 45 mg/kg): 30000 ng·h/mL
AUC(0-t) ([1]; female, Balb/c, mouse, plasma, po, 70 mg/kg, oral, PTX 70 mg/kg, FM04 0 mg/kg, read-out: PTX AUC(0-t) (converted)): 523 ng·h/mL
Cmax ([1]; female, Balb/c, mouse, plasma, po, 70 mg/kg, oral, PTX 70 mg/kg, FM04 0 mg/kg, read-out: PTX Cmax): 186 ng/mL
AUC ([1]; female, Balb/c, mouse, plasma, po, 70 mg/kg, PTX 70 mg/kg alone): 523 ng·h/mL
AUC(0-t) ([1]; female, Balb/c, mouse, plasma, po, oral, PTX 20 mg/kg + FM04 45 mg/kg, read-out: PTX AUC(0-t) (converted)): 9400 ng·h/mL
Cmax ([1]; female, Balb/c, mouse, plasma, po, oral, PTX 20 mg/kg + FM04 45 mg/kg, read-out: PTX Cmax): 3510 ng/mL
AUC ([1]; female, Balb/c, mouse, plasma, po, oral, PTX 70 mg/kg + FM04 22 mg/kg): 15500 ng·h/mL
AUC(0-t) ([1]; female, Balb/c, mouse, plasma, po, oral, PTX 70 mg/kg + FM04 22 mg/kg, read-out: PTX AUC(0-t) (converted)): 15500 ng·h/mL
Cmax ([1]; female, Balb/c, mouse, plasma, po, oral, PTX 70 mg/kg + FM04 22 mg/kg, read-out: PTX Cmax): 4950 ng/mL
AUC(0-t) ([1]; female, Balb/c, mouse, plasma, po, oral, PTX 70 mg/kg + FM04 45 mg/kg, read-out: PTX AUC(0-t) (converted)): 30000 ng·h/mL
Cmax ([1]; female, Balb/c, mouse, plasma, po, oral, PTX 70 mg/kg + FM04 45 mg/kg, read-out: PTX Cmax): 9760 ng/mL
Tmax ([1]; female, Balb/c, mouse, plasma, oral, PTX 20 mg/kg + FM04 45 mg/kg, read-out: PTX Tmax (converted)): 120 min
PTX AUC/Dose fold-change vs PTX alone [1, 2]: 66
PTX Cmax fold-change vs PTX alone [1, 2]: 26
PTX AUC/Dose fold-change vs PTX alone [1, 3]: 30
PTX Cmax fold-change vs PTX alone [1, 3]: 27
PTX AUC/Dose fold-change vs PTX alone [1, 4]: 57
PTX Cmax fold-change vs PTX alone [1, 4]: 53
oral absorption of PTX ([1]; oral PTX 70 mg/kg with FM04 22 mg/kg): 6.6%
oral absorption of PTX ([1]; oral PTX with FM04 45 mg/kg): 14%
oral absorption of PTX ([1]; oral PTX without FM04): 0.2%
RF, LCC6MDR + 1 μM FM04 (P-gp): 34.1
RF, LCC6MDR + DMSO (P-gp): 1.0
